From patent publication US11299482B2, “Salt and crystal form of modified andrographolide compound and preparation method thereof” (HEILONGJIANG ZHENBAODAO PHARMACEUTICAL CO, LTD, priority 2017, dated 2022)

Key:
[1] = system: IL-13 release from mouse spleen cells; assay: Release of IL-13 (Th2 pathway) from mouse spleen CD4+ T cells (CBA); type: cell-based; settings: Th2 induction, 72 hours, read-out: Inhibition rate, IL-13 (Th2)
Description: Evaluate the inhibitory effect of the compound on LPS-induced release of cytokines involved in the Th2 pathway such as IL-13 from mouse spleen cells by measuring the levels of cytokines involved in the Th2 pathway such as IL-13 in the culture supernatant of mouse spleen cells. Cells: CD4+ cells isolated and sorted from the spleens of normal C57BL/6 mice The anti-mouse CD3 antibody diluted to 5 μg/mL with DPBS was added to a 96-well plate at 100 μL/well. The culture plate was allowed to stand at 4° C. overnight; 6) CD4+ T cells were isolated by using the Mouse CD4+ T Cell Isolation Kit, and the isolated cells were adjusted to a concentration of […]; 8) The isolated CD4+ T cells were added to the wells coated with the anti-CD3 antibody at 50 μL/well, i.e. 1×10^5 cells/well; and meanwhile, the CD4+ T cells were added to un-coated wells in the same amount, as a negative control; The mouse anti-IFNγ antibody and anti-IL-12 antibody were simultaneously added to the culture medium both at a concentration of 40 μg/mL, and mouse IL-4 was added thereto at a concentration of 40 ng/mL. An induction solution was prepared and added to the wells that had been plated with cells and coated with anti-CD3 antibody at 50 μL/well. […] Then, the supernatant was collected, and the level of IL-13 therein was detected by CBA.

[2] = system: IL-2 release from mouse spleen cells; assay: Release of IL-2 from anti-CD3 stimulated mouse spleen cells (CBA); type: cell-based; settings: anti-CD3, 24 hours, read-out: Inhibition rate, IL-2 (Th1)
Description: (§1) Evaluate the inhibitory effect of the compound on the release of cytokines involved in the Th1 pathway such as IFN-γ and IL-2 from mouse spleen cells by measuring the levels of cytokines involved in the Th1 pathway such as IFN-γ and IL-2 in the culture supernatant of mouse spleen cells. Cells: spleen cells isolated from the spleens of normal C57BL/6 mice The anti-mouse CD3 antibody diluted to 5 μg/mL with DPBS was added to a 96-well plate at 100 μL/well. The culture plate was allowed to stand at 4° C. overnight; 1) The mice were sacrificed under aseptic conditions, and the spleens were collected and ground in a filter having a pore size of 70 μm. The obtained cell suspension was collected. 2) The cells were added to the wells coated with the anti-mouse CD3 antibody at 50 μL/well, i.e. 1×10^5 cells/well; and meanwhile, the cells were added to un-coated wells in the same amount, as a negative control; The compound was dissolved in DMSO to give a solution of 100 mM, and then the solution was diluted with DMSO to obtain 3 gradients, which were 30 mM, 10 mM, and 3 mM, respectively. For each gradient, 4 μl of the solution was added to 1 ml of culture medium to form a mixture with a concentration of 120 μM, 40 μM, or 12 μM, respectively. […] Then, the supernatant was collected, and the levels of IFN-γ and IL-2 therein were detected by CBA.

[3] = system: IL-6 release from mouse spleen cells; assay: LPS-induced release of IL-6 from mouse spleen cells (CBA); type: cell-based; settings: 24 hours, read-out: Inhibition rate, IL-6 (Th1)
From the text: (§2) Evaluate the inhibitory effect of the compound on LPS-induced release of cytokines involved in the Th1 pathway such as TNF-α and IL-6 from mouse spleen cells by measuring the levels of the cytokines involved in the Th1 pathway such as TNF-α and IL-6 in the culture supernatant of mouse spleen cells. Cells: spleen cells isolated from the spleens of normal C57BL/6 mice 1) The mice were sacrificed under aseptic conditions, and the spleens were collected and ground in a filter having a pore size of 70 μm. The obtained cell suspension was collected. 6) The cells were added to a 96-well plate (100 μL/well, 1×10^5 cells/well); LPS was formulated with culture medium into a 4 μg/ml solution, and then the solution was added to the cell culture well at 50 μl per well. The compound was dissolved in DMSO to give a solution of 100 mM, and then the solution was diluted with DMSO to obtain 3 gradients, which were 30 mM, 10 mM, and 3 mM, respectively. For each gradient, 4 μl of the solution was added to 1 ml of culture medium to form a mixture with a concentration of 120 μM, 40 μM, or 12 μM, respectively. 50 μl of the mixture was added to a corresponding well to a final concentration of 30 μM, 10 μM, or 3 μM, respectively. […] Then, the supernatant was collected, and the levels of TNF-α and IL-6 therein were detected by CBA.

[4] = system: IFN-γ release from mouse spleen cells; assay: Release of IFN-γ from anti-CD3 stimulated mouse spleen cells (CBA); type: cell-based; settings: anti-CD3, 24 hours, read-out: Inhibition rate, IFN-γ (Th1)
Description: as §1

[5] = Study on polymorphism of the compound of Formula (II) (stirring in solvent, XRPD); type: physicochemical; settings: stirred at 40° C. for 2 days in the dark
Description: The compound of Formula (II) was dissolved in a corresponding solvent and stirred at 40° C. for 2 days in the dark. The solution was then centrifuged to obtain a precipitate which was dried and subjected to XRPD detection.

[6] = system: TNF-α release from mouse spleen cells; assay: LPS-induced release of TNF-α from mouse spleen cells (CBA); type: cell-based; settings: 24 hours, read-out: Inhibition rate, TNF-α (Th1)
From the text: as §2

[7] = system: TGF-β release from mouse peritoneal macrophages; assay: Release of TGF-β from mouse peritoneal macrophages (ELISA); type: cell-based; settings: Peritoneal macrophage, 24 hours, read-out: Inhibition rate, fibrosis factor TGF-β
Description: Evaluate the inhibitory effect of the compound on the release of TGF-β from mouse peritoneal macrophages by measuring the level of TGF-β in the culture supernatant of mouse peritoneal macrophages. Cells: Macrophages collected by peritoneal lavage of normal Balb/c mice 7) The macrophages were added to a 48-well plate at 250 μL/well, i.e. 4×10^5 cells/well; 2) A stimulating solution containing TNFα and IL-13 both at a concentration of 80 ng/mL was prepared with serum-free medium, and added to the wells plated with cells at 125 μL/well. Three wells were left without the addition of the stimulating solution and used as a blank control; The compound was dissolved in DMSO to give a solution of 100 mM, and then the solution was diluted with DMSO to obtain 3 gradients, which were 30 mM, 10 mM, and 3 mM, respectively. For each gradient, 4 μl of the solution was added to 1 ml of culture medium to form a mixture with a concentration of 120 μM, 40 μM, or 12 μM, respectively. 125 μl of the mixture was added to a corresponding well to a final concentration of 30 μM, 10 μM, or 3 μM, respectively. Dexamethasone was added as a positive drug to a separate well containing cells at a final concentration of 100 nM. […] Then, the supernatant was collected, and the level of TGF-β therein was detected by ELISA.

[8] = system: left unilateral pulmonary fibrosis; assay: SD rat model of left unilateral pulmonary fibrosis; type: in vivo
[9] = system: IL-6 release from THP-1 cells; assay: LPS-induced release of IL-6 from THP-1 cells (CBA); type: cell-based; settings: Homo sapiens, LPS-stimulated THP-1 cells, 24 hours, read-out: Inhibition rate @10 uM (IL-6)
Description: Evaluate the inhibitory effect of the compound on LPS-induced release of IL-6 from THP-1 cells by measuring the level of IL-6 in the cell culture supernatant.
Cell line: THP-1 cell line
4) THP-1 cells were diluted with culture medium to 5×10^5 cells/mL and the diluted cells were added to a 96-well plate (100 μl/well, […]);
1) The compound was dissolved in DMSO to give a solution of 30 mM, and then the solution was 3-fold diluted with DMSO into 4 gradients, which were 30 mM, 10 mM, 3 mM, and 1 mM, respectively. For each gradient, 4 μl of the solution was added to 1 ml of culture medium to form a mixture with a concentration of 120 uM, 40 uM, 12 uM, or 4 uM, respectively. Then, 50 ul of the mixture was added to a well containing cells to a final concentration of 30 uM, 10 uM, 3 uM, or 1 uM, respectively. Dexamethasone was added as a positive drug to a separate well containing cells at a final concentration of 100 nM.
1 mg/ml of a LPS solution was diluted to 800 ng/ml with culture medium, and the diluted solution was added to the cell culture well at 50 ul per well.
The cell culture plate was placed in a 37° C. incubator and incubated for 24 hours. Then, the supernatant was collected, and the level of IL-6 therein was detected by CBA.

[10] = Solid physical stability test of Crystal Form A under different temperature, humidity and light conditions; type: physicochemical; settings: Day 10
Description: The vial was sealed with aluminum-foil paper which was punched to generate some small holes to ensure that the sample could fully contact with the ambient air. The 4 samples as prepared were placed under conditions of 25° C./92.5% relative humidity, 60° C., 40° C./75%, and light. The physical stability of the samples on day 10 was examined. […] On day 10, all samples were taken and returned to room temperature. The appearance change of the samples was observed, and the crystal form of the samples was examined by XRPD.

[11] = Solid stability test of Crystal Form A under high temperature and high humidity conditions; type: physicochemical
Description: The vial was sealed with aluminum-foil paper which was punched to generate some small holes to ensure that the sample could fully contact with the ambient air. The vial was placed in a chamber with a constant temperature and humidity of 40° C. and 75%. Samples were placed under the above conditions and tested on day 5 and day 10. The test results were compared with the initial test results as measured on day 0.

[12] = 25° C./92.5% relative humidity (open)
[13] = 40° C./75% relative humidity (open)
[14] = stored at −20° C. in a confined space (control sample)
[15] = 40° C. and 75% humidity, open, day 5
[16] = 40° C. and 75% humidity, open, day 10

Which results are given for C=C1CCC2[C@]3(C)CO[C@@H](C4CCCC4)O[C@@H]3CC[C@@]2(C)[C@@H]1CCOC1CCN(C)CC1.O=C(O)CC(O)(CC(=O)O)C(=O)O (stereo in doubt) [compound of Formula (II)]?
inhibition at 10 µM [1]: 99.9%; inhibition at 10 µM [2]: 78.2%; inhibition at 10 µM [3]: 48%; inhibition at 10 µM [4]: 85.3%; Crystal form ([5]; Ethanol): Crystal Form A; Crystal form ([5]; Methanol): Crystal Form A; inhibition at 30 µM [6]: 40.3%; inhibition at 10 µM [7]: 51%; Inhibitory effect on IPF [8]: significant inhibitory effect

With C=C1CCC2[C@]3(C)CO[C@@H](C4CCCC4)O[C@@H]3CC[C@@]2(C)[C@@H]1CCOC1CCN(C)CC1 (some centres unmarked) [Compound h] as the molecule, how does the inhibition at 10 µM [9] read?
Its inhibition at 10 µM is > 60%.

What does the source list for C=C1CCC2[C@]3(C)CO[C@@H](C4CCCC4)O[C@@H]3CC[C@@]2(C)[C@@H]1CCOC1CCN(C)CC1.O=C(O)CC(O)(CC(=O)O)C(=O)O (some centres unmarked) [Crystal Form A]?
Characters [10, 12]: Off-white powder; Crystal form [10, 12]: Crystal Form A; Characters [10, 13]: Off-white powder; Crystal form [10, 13]: Crystal Form A; Characters ([10]; 60° C. (open)): Off-white powder; Crystal form ([10]; 60° C. (open)): Crystal Form A; Characters ([10]; light): Off-white powder; Crystal form ([10]; light): Crystal Form A; Characters [10, 14]: Off-white powder; Crystal form [10, 14]: Crystal Form A; Appearance [11, 15]: Off-white powder; Crystal form [11, 15]: Crystal Form A; Purity (%) [11, 15]: 98.37%; Total impurities (%) [11, 15]: 1.61%; Appearance [11, 16]: Off-white powder; Crystal form [11, 16]: Crystal Form A; Purity (%) [11, 16]: 98.45%; Total impurities (%) [11, 16]: 1.55%; Appearance ([11]; day 0 (initial)): Off-white powder; Crystal form ([11]; day 0 (initial)): Crystal Form A; Purity (%) ([11]; day 0 (initial)): 98.51%; Total impurities (%) ([11]; day 0 (initial)): 1.49%
